Values joined by “and” are separate entries in the source; they are usually repeats but may differ in a detail not shown here. Equal values may be shown once. Values belong to the molecule of their own block, whether it stands above or below them.
Key:
[1] = molecular target: T1, POP isolated from rat brain (Rattus norvegicus, UniProt O70196); assay: POP inhibition assay (release of AMC from Cbz-Ala-Pro-AMC); assay type: biochemical; conditions: substrate Cbz-Ala-Pro-AMC 20 μM, 30 min at 37°C, pH 7.5, read-out: IC50, POP inhibitory activity
T1 construct: the resulting POP preparation was a homogeneous monomer with molecular weight of 75 kDa; from tissue; host or cells: rat brain
T1 sequence (O70196 1-710): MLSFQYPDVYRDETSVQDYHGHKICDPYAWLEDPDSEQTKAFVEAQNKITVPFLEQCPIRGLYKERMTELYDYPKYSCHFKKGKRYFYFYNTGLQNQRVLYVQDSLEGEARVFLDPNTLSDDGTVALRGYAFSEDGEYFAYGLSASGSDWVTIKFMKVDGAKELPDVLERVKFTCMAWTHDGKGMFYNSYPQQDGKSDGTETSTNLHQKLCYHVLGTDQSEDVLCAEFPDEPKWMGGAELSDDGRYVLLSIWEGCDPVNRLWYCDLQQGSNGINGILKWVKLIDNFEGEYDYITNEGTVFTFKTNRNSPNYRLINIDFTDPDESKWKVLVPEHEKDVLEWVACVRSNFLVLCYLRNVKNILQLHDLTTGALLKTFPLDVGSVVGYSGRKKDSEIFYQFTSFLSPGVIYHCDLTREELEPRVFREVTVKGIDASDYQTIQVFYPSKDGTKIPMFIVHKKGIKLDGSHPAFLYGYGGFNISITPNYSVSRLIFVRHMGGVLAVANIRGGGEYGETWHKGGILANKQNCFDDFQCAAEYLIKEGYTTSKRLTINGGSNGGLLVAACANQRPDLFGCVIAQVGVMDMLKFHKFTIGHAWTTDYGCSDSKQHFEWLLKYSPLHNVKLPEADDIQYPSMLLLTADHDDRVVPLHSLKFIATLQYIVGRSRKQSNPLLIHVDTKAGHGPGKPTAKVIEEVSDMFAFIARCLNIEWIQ
Description: Briefly, rat brain homogenate was precipitated with ammonium sulfate, followed by ion exchange chromatography on DEAE-Sephadex A-50, gel chromatography on Sephadex G-75, and high-performance liquid chromatography on a MonoQ column using FPLC. […] Purified POP was concentrated by ultrafiltration and stored at −80°C.
The reaction was initiated by addition of the substrate (20 μM) in a final reaction volume of 2 ml. The incubation mixture consisted of 50 μl of the enzyme preparation in 20 mM Tris-HCl buffer (pH 7.5) with 1 mM EDTA, 1 mM dithiothreitol, and 0.1% NP–40; 50 μl of 1 mg/ml substrate solution in DMSO; and 1.9 ml of Tris-HCl buffer. […] After a 30-min incubation at 37°C, the reaction was stopped by addition of 1 ml of acetate buffer (pH 4.0). The AMC concentration was determined on an LS–5B spectrofluorometer (Perkin–Elmer, United States) with excitation and emission wavelengths of 380 and 460 nm, respectively.

[2] = Tissue concentration of CbzMetPrdN in the brain after single i.p. administration; assay type: in vivo; conditions: single i.p. 20 mg/kg
Description: (§1) The total drug concentrations for CbzMetPrdN and POP activity in the brain were determined as a function of time at 0, 20, 40, 60, 80, and 120 min (n = 3 for each time-point) after a single 20 mg/kg intraperitoneal (i.p.) administration of CbzMetPrdN. The test animals were sacrificed, and their brains were harvested and immediately homogenized in phosphate buffer saline.
For measurement of the brain tissue concentration of CbzMetPrdN, the homogenate was mixed with an equal volume of methanol and centrifuged at 3,000 g for 10 min. The supernatant was concentrated to 2 ml, followed by solid phase extraction in a Retain AX SPE cartridge (Thermo Fisher Scientific). The cartridge was washed with 1 ml of 5% ammonia solution and then with 1 ml of methanol. The sample was eluted with 1 ml of 2% trifluoroacetic acid in methanol and analyzed using a Gilson 41 HPLC system (Gilson, United Kingdom) with a 125 × 4 mm Nucleosil C18 column (Macherey-Nagel). The column was washed for 3 min with 4 mM hexanesulfonate in water (pH 3.5), followed by a 0–100% gradient of 4 mM hexanesulfonate in acetonitrile:water (50:50) % (v/v) over 10 min. The concentration of the POP inhibitor is expressed in ng of CbzMetPrdN per mg of brain protein.

POP = molecular target: T2, POP (Rattus norvegicus, UniProt O70196); assay: POP activity in brain tissue homogenate after single i.p. administration; assay type: in vivo
T2 construct: from tissue; host or cells: brain homogenate of rats dosed i.p. with CbzMetPrdN
T2 sequence (O70196 1-710): T1 sequence (O70196 1-710)
Description: as §1
POP activity in the brain tissue homogenate was measured using Cbz-Ala-Pro-AMC, as described above, and is presented as nmole AMC released/min/mg of brain protein. Protein concentrations of the supernatants were determined with a Bio-Rad protein assay kit.

[3] = system: scopolamine-induced amnesia; assay: Scopolamine-induced amnesia of conditioned passive avoidance reflex (CPAR); assay type: in vivo, rat; conditions: for CPAR retention time, scopolamine-induced amnesia: doses 1 and 2 mg/kg i.p., vs scopolamine only
Description: (§2) The development of CPAR was performed on a standard passive avoidance device from Lafayette Instrument Co. (United States). The device consists of a small platform located at a distance of 1 m from the floor, illuminated by a special lamp, and a dark chamber with an electrode floor. During learning, a rat was placed on the small platform in front of the entrance to the dark chamber. Immediately after entering the dark chamber, the rat received a painful stimulation from an electric current of 0.6 mA through the electrode floor lasting 10 s or until the rat ran out of the chamber (learning). […] If the rat entered the dark chamber, the training was repeated. A test for the refiex reproduction was performed after 24 h. In this case, the rat was placed on a lighted area, and step-through latency time (STL) of its entry into the dark chamber was recorded. The observation time was 3 min. The criterion for refiex reproduction was considered to be the STL of entry into the dark box.
Experiments were performed using two rat models of amnesia. In the first model, effects of POP inhibitors on scopolamine-induced amnesia were studied. The series included eighteen groups of animals (137 rats). Rats in the negative control group (group 1, n = 8) received 2 ml of vehicle (physiological saline solution containing 1% Tween 80) i.p. 40 min before the CPAR learning. Rats in the non-treated group (group 2, n = 7) received scopolamine (1 mg/kg, i.p. in 2 ml of vehicle) 20 min before the CPAR learning. […].

MES-induced amnesia = MES-induced amnesia of conditioned passive avoidance reflex (CPAR); assay type: in vivo; conditions: rat; for Antiamnesic activity, MES-induced amnesia, 1 mg/kg: comparable with piracetam 300 mg/kg; for Antiamnesic activity, MES-induced amnesia, 1 and 2 mg/kg: doses of 1 and 2 mg/kg; for Potency in comparison with piracetam, MES-induced amnesia: vs piracetam 300 mg/kg
Description: as §2
In the second model, effects of POP inhibitors on MES-induced amnesia were studied. The series included fifteen groups of animals (110 rats). Rats in the negative control group (group 1, n = 8) received 2 ml of vehicle (physiological saline solution containing 1% Tween 80) i.p. 30 min before the CPAR learning. Rats in the positive control group (group 2, n = 7) received MES just after CPAR learning. MES was induced using an electric shock generator from Harvard Apparatus (Holliston, MA, United States) consisting of a current (250 V, 120–122 20 mA, delivered for 0.1 s) by way of corneal electrodes. Rats of groups 3–14 received a single injection of POP inhibitor at doses of 0.5, 1, and 2 mg/kg, including BocTrpPrdN (groups 3–5, n = 7 in each), BocGlyPrdN (groups 6–8, n = 6 in each), CbzMetPrdN (groups 9–11, n = 8 in each), and CbzGlnPrdN (groups 12–14, n = 8 in each) 40 min prior to the CPAR learning (three groups of animals for each inhibitor) with following MES just after CPAR learning. Rats in group 15 (n = 8) received piracetam (300 mg/kg, i.p.) 50 min before the CPAR learning and MES just after CPAR learning.

[4] = system: dipeptidyl peptidase IV (DPP-4); parameters: method as in Ivanova et al., 2020; conditions: ref Ivanova et al., 2020; cited from earlier work
[5] = system: MPTP-induced Parkinsonian syndrome; parameters: method as in earlier work; conditions: ref Khlebnikova et al., 2009b, Krupina et al., Khlebnikova et al., 2012, 2013a, 2013b, Kalinina et al., 2019; cited from earlier work
[6] = parameters: method as in Jalkanen et al., 2011a; Jalkanen et al., 2014; conditions: mouse and rat, ref Jalkanen et al., 2011a, 2014; cited from earlier work

IC50 [1]: 2.1 ± 0.6 nM
Time point with maximal concentration in the brain ([2]; rat): 60 min
Accumulation in rat brain tissue ([2]; 0-120 min): accumulated in the brain
Inhibition of POP in the brain (POP; administered intraperitoneally): effectively inhibits POP in the brain
Time of maximal inhibition of brain POP activity (POP; single i.p. 20 mg/kg): 60 min
Structure (SMILES): CSCC[C@H](NC(=O)OCc1ccccc1)C(=O)N1CCC[C@H]1C#N [CbzMetPrdN, N-Benzyloxycarbonyl-L-methionyl-(2S)-pyrrolidine-2-carbonitrile]
CPAR retention time, scopolamine-induced amnesia ([3]; rat, scopolamine 1 mg/kg): significantly prolonged CPAR retention time
Antiamnesic activity, MES-induced amnesia, 1 mg/kg (MES-induced amnesia): potent antiamnesic activity
Inhibition of DPP-4 activity [4]: inhibited activity
Effect in preclinical model of Parkinsonian syndrome (MPTP) [5]: exhibited neuroprotective activity and abolished depressive symptoms

Structure (SMILES): CC(C)(C)OC(=O)N[C@@H](Cc1c[nH]c2ccccc12)C(=O)N1CCC[C@H]1C#N [BocTrpPrdN, N-(tert-butoxycarbonyl)-L-tryptophanyl-(2S)-pyrrolidine-2-carbonitrile]
IC50 [1]: 9 ± 0.9 nM
Antiamnesic activity, scopolamine-induced amnesia (overall) ([3]; rat, 0.5-2 mg/kg i.p., scopolamine 1 mg/kg): clear tendency toward antiamnesic activity
Antiamnesic activity, MES-induced amnesia, 1 and 2 mg/kg (MES-induced amnesia): exhibited antiamnesic activity
Potency in comparison with piracetam, MES-induced amnesia (MES-induced amnesia): less potent

Structure (SMILES): C[C@H](NC(=O)OCc1ccccc1)C(=O)N1CCC[C@H]1C#N [CbzAlaPrdN, N-benzoxycarbonyl-L-alanyl-(2S)-pyrrolidine-2-carbonitrile]
Antiamnesic effect, scopolamine-induced amnesia, all doses ([3]; rat, 0.5, 1 and 2 mg/kg i.p., scopolamine 1 mg/kg): not effective

Structure (SMILES): N#C[C@@H]1CCCN1C(=O)[C@@H]1CCCN1C(=O)CCCc1ccccc1 [KYP-2047, (2S)-1-[[(2S)-1-(1-oxo-4-phenylbutyl)-2-pyrrolidinyl]carbonyl]-2-pyrrolidinecarbonitrile]
Brain penetration [6]: penetrates mouse and rat brains

IC50 [1]: ~2 nM and 2 nM
Structure (SMILES): N#C[C@@H]1CCCN1C(=O)[C@H](CCC(N)=O)NC(=O)OCc1ccccc1 [CbzGlnPrdN, N-Benzyloxycarbonyl-L-glutaminyl-(2S)-pyrrolidine-2-carbonitrile]
CPAR retention time, scopolamine-induced amnesia ([3]; rat, scopolamine 1 mg/kg): significantly prolonged CPAR retention time
Antiamnesic activity, MES-induced amnesia, 1 mg/kg (MES-induced amnesia): potent antiamnesic activity

Structure (SMILES): CN1[C@@H]2C[C@@H](OC(=O)[C@H](CO)c3ccccc3)C[C@H]1[C@@H]1O[C@@H]12 [scopolamine, reference compound]
Latency period (STL) in CPAR test ([3]; rat, scopolamine 1 mg/kg i.p. 20 min before learning, vehicle-treated rats 145.0 ± 21.7 s): 23.5 ± 9.6 s

Structure (SMILES): CC(C)(C)OC(=O)NCC(=O)N1CCC[C@H]1C#N [BocGlyPrdN, N-(tert-butoxycarbonyl)glycyl-(2S)-pyrrolidine-2-carbonitrile]
IC50 [1]: 12 ± 3 nM
CPAR retention time, scopolamine-induced amnesia ([3]; rat, scopolamine 1 mg/kg): significantly prolonged CPAR retention time
Antiamnesic activity, MES-induced amnesia, 1 and 2 mg/kg (MES-induced amnesia): exhibited antiamnesic activity
Potency in comparison with piracetam, MES-induced amnesia (MES-induced amnesia): less potent

Reference: publication PMC8727363, “Therapeutic Effect of Novel Cyanopyrrolidine-Based Prolyl Oligopeptidase Inhibitors in Rat Models of Amnesia” (Frontiers in Chemistry, 2021)
